From patent US20220072101A1, “HARNESSING INFLAMMATION TO TREAT NEURODEVELOPMENTAL DISORDERS” (President and Fellows of Harvard College, priority 2019, published 2022) come the findings set out here.

The subject of one test is MIA offspring. Nature of the test: Reciprocal social interaction assay. In kind it is in vivo, mouse. Particulars: four hours after LPS. The protocol: Four hours prior to testing, mice were injected with vehicle or LPS. Two unfamiliar mice of the same treatment and background were placed in a fresh mouse cage and allowed to freely interact for 10 min. Videos were acquired using IC Capture (The Imaging Source®) at 640×480 aspect ratio and 25 fps. Social interaction (close following, push-crawl, nose-nose sniffing, and nose-anus sniffing) was scored by an observer blind to treatment and background^27.

The test system of the next test is S1DZ neurons. The test is described as follows: In vivo electrophysiology, firing rate of S1DZ neurons in awake mice. Details: species or system mouse. On the procedure:
Electrophysiological experiments were conducted in head-fixed mice trained to walk on a rotating running wheel. Prior to training, mice were implanted with custom crowns permitting head-fixing above the wheel and allowed to recover for one week before training. Mice were trained to walk on the wheel for three 10 min sessions daily for at least one week. Following training, mice were implanted with a multi-electrode array targeting the S1DZ and allowed to recover before testing. To assess IL-17a dependence of LPS-induced changes in neural activity, mice were injected i.p. with control antibodies or blocking antibody against IL-17a (1 mg/mouse), 30 min prior to i.p. vehicle or LPS injection. Baseline neural activity was measured while mice were running on the wheel immediately prior to the first injection. Following the first injection, mice were returned to their home cage. Post-injection (Test) neural activity during wheel running was measured 4 hrs after vehicle or LPS injection.
Custom multi-electrode array scaffolds (drive bodies) were designed using 3D CAD software (SolidWorks®) and printed in Accura 55 Plastic™ (American Precision Prototyping®) as described previously^31,32. […]
Firing rate was calculated across one second time windows during which animals were walking stably on the rotating wheel averaged across 25-50 trials per condition. […]

As for lipopolysaccharide [LPS], the reciprocal social interaction result in the test on MIA offspring is “rescue of MIA sociability deficits was also evident”. Also, the “overall firing rate of S1DZ neurons” value in the test with S1DZ neurons (MIA offspring, 4 hrs after LPS) is recorded as “a decrease in overall firing rate was observed”. Further, the “firing rate in the S1DZ” value in the test on S1DZ neurons (control (PBS) offspring) is listed as “Neither LPS nor IL-17a blocking antibody treatment changed the firing rate”.
